Experimental data published in patent publication US20170136008A1, “OXABICYCLOHEPTANES AND OXABICYCLOHEPTENES FOR THE TREATMENT OF OVARIAN CANCER” (priority 2014, published 2017).

Legend:
[1] = test system: PEO1-Missense (PEO-1m) ovarian cancer cell line; experiment: MTT cytotoxicity assay, PEO1-Missense; assay type: cell-based, human; settings: Homo sapiens, read-out: IC50, viability of ovarian cancer cell line
Description: (§1) SKOV-3 ovarian cancer cells were purchased from American Type Culture Collection (ATCC) (Manassas, Va.). SKOV-3 cells were cultured in McCoy's 5A medium (ATCC, Manassas, Va.) supplemented with 10% fetal bovine serum and 100 units/mL penicillin G sodium, 100 ug/mL streptomycin sulfate, and 292 μg/ml, L-glutamine (BioWhittaker, Wakersville, Md.). Luciferase-expressing cells were generated by infecting SKOV-3 cells with pCLNCX-luciferase retrovirus (SKOV-3-Luc) as previously reported (Wei, B. R. et al. 2009). Human OVCAR-8 ovarian cancer cells were provided by the National Cancer Institute (part of the NCI-60 collection). The PEO1, PEO4, and PEO6 ovarian cancer cell lines have previously been characterized (Langdon, S. P. et al. 1988) and were kindly provided by Dr. Ian Goldlust (National Center for Advancing Translational Sciences, Shady Grove, Md.). […]
(§2) Cell survival was measured by the 3-(4,5-dimethylthiazol-2-yl)-2,5-diphenyltetrazolium bromide (MTT, Invitrogen) assay. […] Absorbance values were determined at […] on a Spectra Max 250 spectrophotometer (Molecular Devices, Sunnyvale, Calif.). […] Cell viability was analyzed via the MTT assay as described above. […]

[2] = test system: OVCAR-8 ovarian cancer cells; experiment: MTT cytotoxicity assay, OVCAR-8; assay type: cell-based, human; settings: Homo sapiens, OVCAR-8, OVCAR8, read-out: IC50, viability of ovarian cancer cell line
Description: as §1, §2

OVCAR-8 cells = experiment: Cell-cycle analysis (FACS), OVCAR-8; assay type: cell-based, human; settings: LB100 2 μM
Description: For cell-cycle analysis, cells were washed with PBS and fixed overnight in ice-cold 70% ethanol and stored at 4° C. Cells were then centrifuged and resuspended in 100 U RNAse (Sigma-Aldrich), and incubated at 37° C. for 20 min. Propidiumidodide solution (Invitrogen, 500 μL, 50 μg/mL in DPBS) was added to each tube and incubated in the dark at 4° C. overnight. Flow cytometry analysis was performed with CellQuestPro and data analysis was completed with ModFit LT. All data is in triplicate and presented as a percent mean±SD.

[3] = test system: SKOV-3/f-Luc intraperitoneal xenografts; experiment: In vivo intraperitoneal ovarian cancer model; parameters: species or system mouse
Description: Five- to seven-week-old female nude athymic mice (nu/nu) were obtained from NCI (Frederick, Md.), maintained in accredited animal facilities and used as stipulated by the U.S. Public Health Service Policy on Humane Care and Use of Laboratory Animals, in accordance with institutional reviews (http://oacu.odnih.gov). 10^6 SKOV-3/f-Luc cells were suspended in 100 μL PBS and injected into the intraperitoneal (i.p.) cavity. […] Following tumor inoculation, mice were dosed on days 4, 6, 8, 10, 12 and 14. Dose and treatment schedule were established based on the activity of each agent reported in previous studies (Wei, D. et al. 2013; Lu, J. et al. 2009; Mabuchi, S. et al. 2007). […] Tumor growth was measured twice a week via bioluminescence imaging (BLI) as previously described (Bakhsheshian, J. et al. 2013). D-Luciferin (150 mg/kg, 3 mg/100 μL PBS) was administered via I.P. injection. Relative intensity of the BLI signal for each mouse was calculated by dividing the total luminescence for each session by the total luminescence measured on day 1 of treatment. Mice were continuously observed until indicated euthanasia endpoints (e.g. significant weight loss, ascites). Toxicity of the treatment regimens was assessed by the degree of weight loss and the overall health status was continuously monitored by a veterinarian on staff. […] After 4 h, mice were euthanized and tumors were dissected from the intraperitoneal cavity, snap-frozen in liquid nitrogen, and lysed as described above.
Tumors were established in nude athymic female mice via i.p. injection of SKOV-3 cells transfected with firefly luciferase. […] Following the final treatment, mice were observed until pre-determined health concerns necessitated euthanization. Dose and treatment schedules were determined from biologic profiles of each agent determined in previous studies (Wei, D. et al. 2013; Lu, J. et al. 2009; Mabuchi, S. et al. 2009) and disease progression was monitored by BLI.

[4] = test system: PEO6 ovarian cancer cell line; experiment: MTT cytotoxicity assay, PEO6; assay type: cell-based, human; settings: Homo sapiens, read-out: IC50, viability of ovarian cancer cell line
Description: as §1, §2

With `CN1CCN(C(=O)C2C(C(=O)O)[C@H]3CC[C@@H]2O3)CC1` (stereo partly drawn) [LB100] the IC50 [1] was 6.2 ± 1.5 µM, the IC50 [2] was 5.5 ± 0.5 µM and the “G1 (%)” value (OVCAR-8 cells; 24 h) was 45.4 ± 1.5%. The “G2/M (%)” value (OVCAR-8 cells; 24 h) was 17.6 ± 0.4%, the “S (%)” value (OVCAR-8 cells; 24 h) was 37.0 ± 1.6% and the “G1 (%)” value (OVCAR-8 cells; 48 h) was 55.3 ± 0.4%. For the same compound, the “G2/M (%)” value (OVCAR-8 cells; 48 h) was 14.9 ± 1.5%, the “S (%)” value (OVCAR-8 cells; 48 h) was 29.9 ± 1.1% and the “day by which massive ascites developed, necessitating euthanasia” value ([3]; LB100 alone 1.5 mg/kg i.p.) was ≤ 25 days. The “tumor growth as assessed by BLI” value ([3]; LB100 alone 1.5 mg/kg i.p.) was “did not alter tumor growth”, the “relative intensity of BLI signal (vs day 1 of treatment)” value ([3]; day 25, each drug 1.5 mg/kg i.p., 6 doses every other day, LB100 1 h before cisplatin in combination) was 12.4±6.7 and the IC50 [4] was 5.1 ± 0.2 µM.
